Measured values reported in US6406709B1, “Method for inhibiting nematocyst discharge” (Nidaria Technology Ltd., priority 1997, dated 2002).

Columns and labels:
[1] = test system: isolated nematocyst capsules; conditions: 50 mM CaCl2; cited from earlier work
[2] = test system: Chrysaora quinquecirrha nematocysts; assay: Nematocyst discharge into human skin slides, Monterey Bay Aquarium; conditions: glycerol plus 0.2% diphenhydramine, exposure 10 to 15 seconds
Experimental: (§1) Normal human skin (HS) was obtained from neonatal elective circumcision. The skin was immediately placed into sterile phosphate buffered saline (PBS) containing antibiotic/antimycotic. The tissue was frozen embedded in Tissue-Tek™. The tissue was then sectioned into 50 μm sections using a cryostat. The sections were attached to glass slides coated with polylysine and maintained at −70° C. until time of use. All sections were examined to ensure that they were perpendicular to the plane of the epidermis, exposing cross-sections of epidermis, dermis and sub-cutaneous tissue.
(§2) The slides prepared and frozen as described above were thawed at room temperature. The slides were submersed in sea water for approximately 10 seconds and then attached to jellyfish or sea anemones tentacles for approximately 10 seconds. The tentacles were detached, the slides washed two times with PBS, and blocked using 5% Fetal Bovine serum (FBS), and 0.1% Triton X100 in PBS (blocking solution). All washing and incubation steps were conducted on a tilting shaker at room temperature. The slides were incubated in 10 mL of blocking solution containing a 1:2,500 dilution of the anti-toxin antibody for one hour. After incubation, the slides were washed five times for five minutes each wash with 100 mL of 0.1% TritonX100 in PBS (Wash solution). […]

[3] = test system: Pelagia noctiluca nematocysts; assay: as above; conditions: glycerol plus 0.2% diphenhydramine, exposure 10 to 15 seconds
Experimental: as §1, §2

[4] = test system: nematocysts of jellyfish or sea anemone tentacles; assay: Artemia adhesion/paralysis test of nematocyst discharge by tentacle fragments in sea water; type: cell-based
Experimental: To initially test inhibition of nematocyst discharge, the following test was performed. It is typical behavior for jellyfish or sea anemone tentacles to adhere to and paralyze newly hatched nauplii of Artemia sp. The adhesion and subsequent paralysis is characteristic of nematocyst discharge by the tentacles. Small 2 to 3 mm fragments of jellyfish or sea anemone tentacles were prepared and placed in a 12-well plate containing filtered sea water. The tentacle fragments were washed by changing the filtered sea water three times. One mL of filtered sea water was left in each well after the final wash. […] The 6 wells without the antihistamine served as controls. Ten Artemia sp. were added to each well in a total volume of between 50 and 100 uL of filtered sea water. After 2 minutes, the number of attached or paralyzed Artemia in each well was measured.

[5] = test system: Auzelia nematocysts; assay: Nematocyst discharge into human skin slides; conditions: N=3 test, 3 each control; control discharged less than 100
Experimental: as §1, §2

Compound | discharge of isolated nematocyst capsules [1] | decrease of nematocyst discharge [2] | reduction in nematocyst discharged [3] | effect on the number of Artemia paralyzed by nematocysts ([4]; 0.02% in sea water, versus sea water alone) | Artemia paralyzed by nematocysts, all wells together ([4]; out of 64 Artemia, 50 of 64 without antihistamine) | decrease in nematocyst discharge [5]
[Ca+2].[Cl-].[Cl-] [CaCl2] | do not discharge | – | – | – | – | –
CN(C)CCOC(c1ccccc1)c1ccccc1.Cl [diphenhydramine, diphenhydramine hydrochloride] | – | 2.5-5 fold | significant reduction | significantly decreased | 11 | ten-fold decrease
